Data taken from patent US6720346B2, “Thiazole benzamide derivatives and pharmaceutical compositions for inhibiting cell proliferation” (Agouron Pharmaceuticals, Inc., priority 2001, dated 2004).
Where a name gives a salt, the structure may show the parent alone.

Legend:
[1] = tested on: HCT-116 cell line; test: Inhibition of cell growth, MTT tetrazolium salt assay; type: cell-based; details: for IC50: Homo sapiens, HCT-116, 120 h, MTT, three to five days
Procedure, shortened: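 Cells in McCoy's 5A medium were given 4 h before compound addition in 0.5% (v/v) DMSO, then incubated 3–5 days at 37 °C, 5% CO2. After 4 h with 0.2 mg/mL MTT, DMSO-solubilized formazan was read at 540 nm; 50% and 90% growth-inhibitory concentrations came from semi-log plots against vehicle controls.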

[2] = target: T1, human CDK4/cyclin D3 (Homo sapiens, UniProt P11802); test: Inhibition of CDK4/cyclin D retinoblastoma kinase activity (Ki; % inhibition); type: biochemical; details: for Ki: apparent Ki, CDK4/cyclin D3, Rb substrate
T1 construct: made in house; host or cells: insect cells co-infected with baculovirus vectors
Procedure, shortened: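 Insect-cell-expressed CDK4 with truncated cyclin D3 (1-264), 5 nM, phosphorylating His-tagged Rb fragment (386-928) with 25 μM [32/33P]ATP at pH 7.4, 30 °C, 20 min (60 min for tight binders). Filter capture, phosphorimager read; % inhibition at 30 nM compound, Ki from competitive or tight-binding fits.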

[3] = target: T2, CDK2/cyclin A (Homo sapiens, UniProt P24941); test: Inhibition of CDK2/cyclin A retinoblastoma kinase activity (Ki; % inhibition); type: biochemical; details: for Ki: apparent Ki, CDK2/cyclin A, Rb substrate
T2 construct: made in house; host or cells: CDK2: insect cells (baculovirus); cyclin A: E. coli
Procedure, shortened: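 Radiometric filter assay of CDK2/proteolyzed cyclin A (baculovirus-expressed human CDK2, 10 or 19 nM) phosphorylating an Rb fragment with 25 μM [³²P/³³P]ATP in pH 7.4 HEPES, 2% DMSO, at 30 °C for 60 or 75 min under initial-rate conditions. Library compounds screened at 30 nM for % inhibition; apparent Ki from concentration series fit to competitive or tight-binding inhibition equations.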

[4] = HCT-116 cells, 0.25 μM compound

T1 sequence (P11802 whole entry): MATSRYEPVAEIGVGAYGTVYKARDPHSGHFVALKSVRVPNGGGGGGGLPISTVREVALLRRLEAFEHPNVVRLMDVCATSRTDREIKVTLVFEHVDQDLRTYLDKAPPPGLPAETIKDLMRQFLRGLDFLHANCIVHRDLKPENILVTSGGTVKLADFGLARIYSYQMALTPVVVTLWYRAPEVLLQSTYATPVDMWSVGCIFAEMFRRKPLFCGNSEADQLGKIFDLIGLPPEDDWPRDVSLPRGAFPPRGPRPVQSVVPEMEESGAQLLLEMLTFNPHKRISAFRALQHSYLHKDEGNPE
T1 sequence (P30281 1-264 partner limits assumed): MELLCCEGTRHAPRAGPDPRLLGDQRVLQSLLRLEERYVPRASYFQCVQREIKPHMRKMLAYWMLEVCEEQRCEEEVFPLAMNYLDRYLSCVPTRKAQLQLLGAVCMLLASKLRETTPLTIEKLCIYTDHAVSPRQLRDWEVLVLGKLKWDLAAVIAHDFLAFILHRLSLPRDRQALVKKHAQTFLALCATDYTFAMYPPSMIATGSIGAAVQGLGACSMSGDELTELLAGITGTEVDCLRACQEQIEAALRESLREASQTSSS

| SMILES | CDK4 % Inhibition at 0.03 μM ([2]; 0.03 μM compound) [%] | CDK2 % Inhibition at 0.03 μM ([3]; 0.03 μM compound) [%] | HCT-116 % Inhibition at 0.1 μM ([1]; HCT-116 cells, 0.1 μM compound) [%] | HCT-116 % Inhibition at 0.25 μM [1, 4] [%] | also measured |
| --- | --- | --- | --- | --- | --- |
| CCN1CCC[C@H]1CNC(=O)c1ccc(Nc2nc(N)c(C(=O)c3c(F)cccc3F)s2)cc1 [Example A38, 4-[4-Amino-5-(2,6-difluoro-benzoyl)-thiazol-2-ylamino]-N-(1-ethyl-pyrrolidin-2S-yl-methyl)-benzamide] | – | – | – | – | IC50 [1]: 100 nM; Ki [2]: 24 nM; Ki [3]: 140 nM |
| CCN(CC)CCNC(=O)c1ccc(Nc2nc(N)c(C(=O)c3c(F)cccc3F)s2)cc1 [Example G157] | – | – | – | – | HCT-116 % Inhibition at 0.1 μM ([1]; HCT-116, at 0.1 μM): 0%; HCT-116 % Inhibition at 0.25 μM ([1]; HCT-116, at 0.25 μM): 87%; CDK4 % Inhibition at 0.03 μM ([2]; at 0.03 μM): 30%; CDK2 % Inhibition at 0.03 μM ([3]; at 0.03 μM): 18% |
| Nc1nc(Nc2ccc(C(=O)NCc3ccc(F)cc3F)cc2)sc1C(=O)c1c(F)cccc1F [Example G301] | 25 | 13 | 18 | 79 | – |
| CC(NC(=O)c1ccc(Nc2nc(N)c(C(=O)c3c(F)cccc3F)s2)cc1)C1CCCCC1 (stereo not shown) [Example G300] | – | – | – | – | HCT-116 % Inhibition at 0.1 μM ([1]; HCT-116 cells, 0.1 μM compound, 0.1 µM): 18%; HCT-116 % Inhibition at 0.25 μM ([1]; HCT-116 cells, 0.25 μM compound, 0.25 µM): 70%; CDK4 % Inhibition at 0.03 μM ([2]; 0.03 μM compound, 0.03 µM): −10%; CDK2 % Inhibition at 0.03 μM ([3]; 0.03 μM compound, 0.03 µM): −18% |
| Nc1nc(Nc2ccc(C(=O)Nc3ccc(Cl)nc3)cc2)sc1C(=O)c1c(F)cccc1F [Example G281] | 12 | −9 | 6 | 63 | – |
| CN1CCC[C@H]1CNC(=O)c1ccc(Nc2nc(N)c(C(=O)c3ccccc3F)s2)cc1 [Example A67, 4-{4-Amino-5-(2-fluoro-benzoyl)-thiazol-2-ylamino}-N-(1-methyl-pyrrolidin-2S-ylmethyl)-benzamide Trifluoroacetic Acid Salt] | – | – | – | – | IC50 [1]: 77 nM; Ki [2]: 88 nM; Ki [3]: 13 nM |
| CCN(CCNC(=O)c1ccc(Nc2nc(N)c(C(=O)c3c(F)cccc3F)s2)cc1)c1cccc(C)c1 [Example G226] | 44 | 48 | 15 | 56 | – |
| C[C@@H](NC(=O)c1ccc(Nc2nc(N)c(C(=O)c3c(F)cccc3F)s2)cc1)c1ccccc1 [Example G166] | – | – | – | – | HCT-116 % Inhibition at 0.1 μM ([1]; HCT-116, at 0.1 μM): 8%; HCT-116 % Inhibition at 0.25 μM ([1]; HCT-116, at 0.25 μM): 90%; CDK4 % Inhibition at 0.03 μM ([2]; at 0.03 μM): 4%; CDK2 % Inhibition at 0.03 μM ([3]; at 0.03 μM): 22% |
| Nc1nc(Nc2ccc(C(=O)NCc3cc(F)ccc3F)cc2)sc1C(=O)c1c(F)cccc1F [Example G309] | 30 | 17 | 5 | 65 | – |
| Nc1nc(Nc2ccc(C(=O)NCc3ccncc3)cc2)sc1C(=O)c1c(F)cccc1F [Example G277] | 26 | 8 | 11 | 56 | – |
| Nc1nc(Nc2ccc(C(=O)NCCc3cccs3)cc2)sc1C(=O)c1c(F)cccc1F [Example A26, 4-[4-Amino-5-(2,6-difluoro-benzoyl)-thiazol-2-ylamino]-N-(2-thiophen-2-yl-ethyl)-benzamide] | – | – | – | – | IC50 [1]: 170 nM; Ki [2]: 20 nM; Ki [3]: 79 nM |

Now from value to compound, other results behind:

| CDK4 % Inhibition at 0.03 μM ([2]; 0.03 μM compound) [%] | CDK2 % Inhibition at 0.03 μM ([3]; 0.03 μM compound) [%] | SMILES | HCT-116 % Inhibition at 0.1 μM ([1]; HCT-116 cells, 0.1 μM compound) [%] | HCT-116 % Inhibition at 0.25 μM [1, 4] [%] | also measured |
| --- | --- | --- | --- | --- | --- |
| −2 | −33 | CC1CC(C)CN(C(=O)c2ccc(Nc3nc(N)c(C(=O)c4c(F)cccc4F)s3)cc2)C1 (stereo not shown) [Example G273] | 17 | 45 | – |
| 19 | 1 | N#CCc1ccc(NC(=O)c2ccc(Nc3nc(N)c(C(=O)c4c(F)cccc4F)s3)cc2)cc1 [Example G321] | 11 | 51 | – |
